Patent publication US6271369A, “Chimeric molecules targeted to viral RNAs” (priority 1997, dated 2001)
“Also recorded” adds a separate entry of the source.

Columns and labels:
[1] = test system: poly(A); experiment: UV absorbance-temperature profile (melting) of complex with poly(A); format: physicochemical; conditions: 40 mM KH2PO4 pH 7.0
Description: We also compared the melting temperature of poly (A) with the melting temperature of SEQ ID NO:1 (FIG. 4). For this experiment, 1000 μL of 3.2×10^-6 M poly(A) in KH2 PO4 buffer (pH 7.0, 40 mM) was mixed with 1000 μL of 2.9 ×10^-6 M SEQ ID NO:1 in KH2 PO4 buffer, and the resulting mixture was incubated at 4° overnight before determination of melting temperature. At/Ai refers to the ratio of absorbance (At) at a given temperature compared to the absorbance (Ai) at the initial temperature (25-30° ). No -attempt was made to determine complex stoichiometry (2- or 3-stranded). Under similar conditions, an equimolar mixture of poly(A) and oligo(dT)20 gave a complex with a Tm of 40° (data not shown).
The effect of the 2-5A moiety of SEQ ID NO:1 on the ability of the dT18 region to anneal with its complementary poly (A) sequence as determined from UV absorbance-temperature profiles is shown in FIG. 4.

[2] = test system: TAR:A25 :vif RNA; experiment: Site-directed cleavage of TAR:A25:vif RNA in Daudi cell extract; format: biochemical, HIV-1
Excerpt: To determine the ability of the 2-5A:AS chimeric molecule SEQ ID NO:1 to induce site-directed RNA cleavage, a target RNA was constructed having an internal 3',5'-oligo(rA) tract. Hybridization between the (dT18) in SEQ ID NO:1 with the oligo(rA) in the target RNA attracts 2-5A-dependent RNase to the target RNA, resulting in a highly specific cleavage event. The experimental target, TAR:A25 :vif RNA, was produced in vitro from a pSP64-derived plasmid containing a partial cDNA for the HIV vif protein interrupted with 25 adenylyl residues. A control TAR:vif RNA was constructed with the A25 tract deleted. These RNA species, which lack 3'-poly(rA) tails, were radiolabeled at their 3'-termini with [5'-^32 p)-pCp by T4 RNA ligase and gel purified prior to the assay.
The 2-5A:AS strategy for site-directed RNA cleavage was next tested in a cell-free system consisting of a postribosomal supernatant fraction of human lymphoblastoid Daudi cells.
Daudi cell extracts prepared with dounce homogenization were made by the well known method of Wreschner, et al. in a buffer containing 40mM KCl; 10 mM HEPES pH 7.5; 2.5mM magnesium acetate; 0.5mM ATP; 2.5% glycerol and 2.0mM mercaptoethanol. The extract used in the RNA cleavage assays was the supernatant of a 100,000 ×g centrifugation of cell extract. About 100 nM radiolabeled RNA (approximately 25,000 counts/min/assay) was incubated with oligonucleotides at 30° C. in extract (10μl) supplemented with 75mM KCl in a final volume of 20 μl. Reactions were terminated and the RNA was extracted with phenollchloroform. The RNA was then ethanol precipitated and redissolved in sterile water and an equal volume of formamide gel sample buffer. Cleavage products were analyzed in 6% polyacrylamide/8M urea gels (30×40×0.04cm).
The cleavage reaction was performed after adding SEQ ID NO:l and purified radiolabeled TAR:A25 :vif RNA to the Daudi cell extract (without preannealing) followed by incubation at 30° C. In the absence of added oligonucleotide, the TAR:A25 :vif RNA was degraded with a half-life of about 90 minutes.
An experiment was conducted to analyze (A) the in vitro transcription of AccI restriction endonuclease-digested plasmids containing TAR:A25 :vif and TAR:vif sequences and (B) the specific cleavage of TAR:A25 ;vif RNA induced by SEQ ID NO:1 (100nM) in extracts of Daudi cells as a function of time. The breakdown of TAR:A25 :vif RNA (intact RNA) was proportional to the appearance of the specific cleavage product. Data was obtained by running a gel with the products of the experiment and then making an autoradiogram of the dried gel. The autoradiogram was then subjected to image analysis with a video camera (Sierra Scientific) and the QUICKCAPTURE.COPYRGT. (Marlboro, Mass.) and IMAGE.COPYRGT. computer programs run on a MACINTOSH IIci.cndot. computer. The percentage of RNA shown in FIG. 6 was based on the sum of the intact RNA and the specific RNA cleavage product.
Cleavage of TAR:A25 :vif RNA (about 100 nM) as a function of SEQ ID NO:1 concentration was also measured. The cleavage reaction was allowed to continue for 30 minutes in Daudi cell extract at 30° C. The levels of the specific cleavage products (relative peak areas) were determined from an autoradiogram as described in relation to FIG. 6 above. The results shown in FIGS. 6 and 7 were reproduced three times.

[3] = test system: TAR:A25 :vif RNA; experiment: Primer-extension analysis of TAR:A25:vif RNA cleavage products; format: biochemical, HIV-1
Description: To determine the exact sites of cleavage of the TAR:A25 :vif RNA induced by SEQ ID NO:1, a primer-extension DNA synthesis reaction was performed on the RNA cleavage products with reverse transcriptase.
A primer extension assay was used as described by Driscoll, et al. (Cell, 58:519 (1989)) except that all four dNTPs were included. DNA sequencing of plasmid pSP6/TAR:A25 :vif was with the same primer using Sequenase version 2.0 (United States Biochemical) and ^35 S-dATP. The sequence of the primer was 5'-[…]-3'(SEQ ID NO:3). Results were reproduced from two separate sets of RNA cleavage reactions.
The cleavage sites of the RNA subjected to the RNA cleavage reactions described above were determined by comparing the migration of the primer extension products and DNA sequencing products performed with the same primer annealed to the plasmid containing the TAR:A25 :vif sequence. […] Previous reports indicate that unmodified 2-sA stimulates 2-5A-dependent RNase to cleave RNA on the 3'-side of UN sequences, where N stands for any nucleotide.

[4] = about 100 nM RNA, 30 minutes, 30° C., FIG. 7

p5'A2'(p5'A2')2 P5'A2'p1[OCH2 (CH2)2 CH2 O]4p1[OCH2 (CH2)2 CH2 O]4p5'pdT3'(p5'dt3')16 p5'dt (AAAATTTTTTTTTTTTTTTTTT; chemistry not fully specified) [SEQ ID NO:1]
melting temperature (Tm) of complex with poly(A) [1]: approximately 38 °C
hypochromicity on mixing with poly(A) ([1]; 3.2×10^-6 M poly(A) + 2.9×10^-6 M): 17%
incubation time for 50% breakdown to the specific cleavage product ([2]; 100 nM, Daudi extract, 30° C., FIG. 6): 20 min
incubation time after which breakdown to cleavage product could be seen clearly ([2]; Daudi extract, 30° C.): 5 min
specific cleavage of TAR:A25:vif RNA ([2]; Daudi extract, 30° C., 30 minutes): nearly quantitative conversion of the intact RNA to a specific cleavage product; also recorded: Specific cleavage of the substrate was observed
lowest concentration at which cleavage reaction was observed [2, 4]: 25 nM
optimal concentration for the cleavage reaction [2, 4]: 250 nM
increase of rate of breakdown of TAR:A25:vif RNA ([2]; versus no added oligonucleotide (half-life about 90 minutes)): more than four-fold
specific cleavage products / cleavage sites by primer extension [3]: induced multiple cleavages within the oligo(rA) tract
levels of intact RNA (full-length primer extension products) ([3]; after incubation in cell-free system): greatly reduced
